Data reported in patent US10081609B2, “Compounds for inducing proliferation and differentiation of cells, and methods of use thereof” (The Broad Institute, Inc., priority 2013, dated 2018).
In brackets after ≈: the same amount, converted by molar mass. Where two headings read alike, the source gives them in different places.

Experiments:
[1] = Microsomal stability - Human; format: in vitro ADME; details: for Microsomal stability No NADPH: non-enzymatic microsomal mechanisms only; for Microsomal stability Average: enzymatic and non-enzymatic microsomal mechanisms
Procedure: (§1) Selected compounds of the invention were evaluated for physico-chemical properties, including solubility, microsomal stability, protein binding and plasma stability (Table 2).
(§2) Selected compounds of the invention were evaluated for physico-chemical properties, including solubility, microsomal stability, protein binding and plasma stability (Table 3).

[2] = Solubility in PBS with 1% DMSO; format: physicochemical; details: aqueous buffer, kinetic from dmso stock
Procedure: as §1, §2

[3] = system: human primary hepatocytes; assay: Expansion of compound-treated human primary hepatocytes (cell counts, Ki67 staining); format: cell-based; details: for proliferation of hepatocytes: FIG. 11A
Procedure: The metabolic phenotype of the treated hepatocytes was assessed for canalicular transport. […] Gene expression profiling confirmed that there was no significant differences between FPH-treated and untreated hepatocytes (FIG. 11D).
The ability of compounds 201-212, 215, 217 and 244-258 to expand human primary hepatocytes in vitro was also tested.

[4] = system: iHeps; assay: Differentiation and maturation of iHeps (albumin/AFP ELISA, staining, CYP3A4 activity); format: cell-based, human
Procedure: Undifferentiated iPS cells were cultured on Matrigel, supported by primary mouse embryonic fibroblasts. Once confluent, iPS cells were transitioned to differentiation media, with sequential addition of growth factors (Activin A, BMP-4, bFGF, HGF, and OSM) to guide differentiation, first into endoderm, then into hepatic progenitor cells and finally into iHeps. Compound treatment started on day 21 post initiation of differentiation and acted over a period of 9 days.
Consistent with the literature, untreated cultures had islands that double stain for albumin and the fetal marker AFP, with very little presence of the mature marker […].
The ability of compounds 201-212, 217 and 244-258 to affect the differentiation of iHeps was also tested.

[5] = Plasma stability - Human; format: in vitro ADME
Procedure: as §1, §2

[6] = Protein binding - Human; format: in vitro ADME
Procedure: as §1, §2

[7] = system: iHeps; assay: Cytochrome P450 activity in treated iHeps; format: cell-based; details: iHeps treated for 9 days
Description: iPS Cells were differentiated into iHeps, treated with selected compounds of the invention for 9 days, then assayed for CYP functions. The general CYP activity of the iHeps treated with compounds of the invention were elevated (FIG. 20A).

[8] = system: human iPS-derived hepatocyte-like cells (iHeps); assay: In vitro maturation of iHeps: ELISA of albumin and AFP; format: cell-based; details: iHeps treated for 9 days
Procedure: The in vitro maturation effects of selected compounds of the invention on human iPS-derived hepatocyte-like cells (iHeps) were evaluated. Human iPS cells were differentiated into iHeps and treated with selected compounds of the invention for 9 days. Maturity of treated iHeps was evaluated through ELISA quantification of mature (albumin) and immature (AFP) markers. Results are illustrated in FIG. 19.

[9] = system: human hepatocytes; assay: CYP450 induction control in human hepatocytes; format: cell-based; details: 250 μM
Procedure: To confirm the staining results, secreted levels of albumin and AFP via ELISA, and CYP450 activities through isoenzyme-specific probes that are either fluorescent or luminescent were measured. ELISA results verified both an increase in albumin secretion and a decrease in AFP secretion by treated iHeps (FIG. 4D bottom). CYP3A4 activity increased by 16 and 45 times upon treatment with FH1 and FPH2, respectively. […] Induction was considered as a possible explanation for these elevations in CYP450 activity. However, this was unlikely based on the following experiments. […] Since a period of at least 48 hrs separated compound treatment and the measurement of CYP450 activity, the iHeps were expected to have recovered from any general elevations in CYP450 activity.

Compound	Microsomal stability Rep1 [1] [% remaining]	Microsomal stability Rep2 [1] [% remaining]	Microsomal stability No NADPH [1] [% remaining]	Microsomal stability Average [1] [% remaining]	solubility ([2]; read-out: Solubility Average) [µM]	solubility ([2]; read-out: Solubility Rep1) [µM]	solubility ([2]; read-out: Solubility Rep2) [µM]	solubility ([2]; read-out: Solubility Rep3) [µM]	proliferation of hepatocytes [3]	Plasma stability Average [5] [% remaining]	Protein binding Average [6] [% bound]	Protein binding Rep1 [6] [% bound]	Protein binding Rep2 [6] [% bound]	experimental range of effective concentrations, CYP2A6 [7] [µM]	experimental range of effective concentrations, CYP3A4 [7] [µM]	experimental range of effective concentrations, CYP3A7 [7] [µM]	experimental range of effective concentrations, general CYP activity (general BFC) [7] [µM]	experimental range of effective concentrations, albumin (mature marker) [8] [µM]	other results
C[C@H]1CN([C@@H](C)CO)C(=O)CCCn2cc(nn2)CO[C@H]1CN(C)C(=O)C1CC1 [Compound 108, N-(((4R,5S,Z)-7-((S)-1-hydroxypropan-2-yl)-5-methyl-8-oxo-11H-3-oxa-7-aza-1(4,1)-triazolacycloundecaphane-4-yl)methyl)-N-methylcyclopropanecarboxamide]	99.4	95.3	102.3	97.4	> 100	> 100	> 100	> 100	induced proliferation	104.2	12.0	11.8	12.1	10 to 20	6.7 to 13.3	6.7 to 10	6.7 to 13.3	5 to 13.3	hepatocyte phenotype of treated iHeps [4]: more mature hepatocyte phenotypes; AFP secretion (ELISA) ([4]; treatment from day 21, 9 days): decreased; albumin secretion (ELISA) ([4]; treatment from day 21, 9 days): increased
C[C@H](CO)N1C[C@H](C)[C@H](CN(C)C(=O)Nc2ccc(F)cc2)Oc2ncc(C#Cc3ccc(F)cc3)cc2C1=O [Compound 107, 3-(4-fluorophenyl)-1-(((2R,3S)-8-((4-fluorophenyl)ethynyl)-5-((R)-1-hydroxypropan-2-yl)-3-methyl-6-oxo-3,4,5,6-tetrahydro-2H-pyrido[2,3-b][1,5]oxazocin-2-yl)methyl)-1-methylurea]	52.4	59.3	94.4	55.8	41 (≈ 22.5 µg/mL)	33 (≈ 18.1 µg/mL)	47 (≈ 25.8 µg/mL)	41 (≈ 22.5 µg/mL)	induced proliferation	87.1	99.5	99.4	99.5	10 to 26.7	6.7 to 20	10 to 13.3	13.3	5 to 20	Ki67 staining co-localized with Hoechst and human albumin stains [3]: increased
O=c1cc(-c2ccccc2)oc2ccc3ccccc3c12 [BNF, β-naphthoflavone]	–	–	–	–	–	–	–	–	–	–	–	–	–	–	–	–	–	–	CYP450 activity [9]: elevated
